Key:
rat hepatocytes = experiment: In vitro metabolism of 14C-amifampridine in rat hepatocytes (Example 1); assay type: in vitro ADME
Method: The objective of this hepatocyte study was to determine the extent of metabolism, complete metabolic profile and metabolite characterization of amifampridine phosphate in several species with ^14C-amifampridine phosphate for a cross species comparison. The following procedures were used to study the metabolism in rat (Example 1), dog (Example 2), and human hepatocytes (Example 3).
The cryopreserved hepatocytes were removed from storage, quickly thawed in a 37° C. water bath for 1 to 2 min, and transferred to a 50 ml tube containing pre-warmed InVitroGRO HT medium (Celsis Inc., Baltimore). The cell suspension was mixed by gentle inversion and the cells were pelleted by centrifugation at 50 to 75×g for 5 min. The supernatant medium was removed and the cells were resuspended in Williams' Medium E. Hepatocyte viability was assessed by using trypan blue exclusion. Hepatocyte density was determined by counting cells with a hemocytometer and the density was adjusted with Williams' Medium E to achieve a final density of 1,000,000 cells/mL. […] The supernatant medium was removed and the cells were resuspended in cold Williams' Medium E. The cell density was then determined using a hemocytometer and the density was adjusted with Williams' Medium E to achieve a final density of 1,000,000 cells/mL. […]

hKv1.7 = molecular target: T1, hKv1.7 (Homo sapiens, UniProt Q96RP8); experiment: Whole cell patch clamp inhibition of hKv1.7 current in transiently transfected CHO cells (Example 5); assay type: cell-based; conditions: hKv1.7, up to 3000 μM
T1 construct: expressed in transfected cells; host or cells: CHO cells (transient transfection)
T1 sequence (Q96RP8 whole entry): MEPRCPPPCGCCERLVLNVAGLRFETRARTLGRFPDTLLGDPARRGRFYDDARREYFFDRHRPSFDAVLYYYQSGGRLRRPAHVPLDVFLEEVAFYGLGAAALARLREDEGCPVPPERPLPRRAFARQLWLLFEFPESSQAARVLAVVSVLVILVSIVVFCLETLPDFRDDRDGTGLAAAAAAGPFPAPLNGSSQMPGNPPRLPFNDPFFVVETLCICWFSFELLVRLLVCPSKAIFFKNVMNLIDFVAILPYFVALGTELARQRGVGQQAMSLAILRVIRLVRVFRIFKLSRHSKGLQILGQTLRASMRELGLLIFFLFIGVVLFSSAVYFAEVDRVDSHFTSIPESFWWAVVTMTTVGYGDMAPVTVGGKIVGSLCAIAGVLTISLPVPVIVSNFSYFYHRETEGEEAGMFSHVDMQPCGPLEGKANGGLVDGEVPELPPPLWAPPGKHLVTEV
Method: Chemicals used in solution preparation were purchased from Sigma-Aldrich (St. Louis, Mo.), unless otherwise noted, and were of ACS reagent grade purity or higher. Stock solutions of each test article (100.104 mM and 1.00 mM 3,4-DAP phosphate and 100.023 mM and 336.335 mM N-(4-aminopyridin-3-yl) acetamide HCl) were prepared in sterile water, stored refrigerated and used within one day. […] All test article solutions contained 3% sterile water. The test articles were prepared in sufficient volume to run the assay (typically 50 mL).
CHO cells, transiently transfected with hKv1.7, were cryopreserved in 90% FBS and 10% DMSO. Frozen vials of cells were thawed rapidly in a 37° C. water bath. Cells were transferred to a 15 mL conical tube, 10 mL of growth media (Ham's/F12-PS/10% FBS) was added, the suspension was gently mixed and the tube was centrifuged at approximately 250×g for 5 min. The medium was removed, the cell pellet was resuspended in 20 mL of medium, and cells were triturated to disperse cell clumps. For electrophysiology use, 2 mL of the cell suspension was plated in each 35 mm cell culture dish. Recording began 2-3 hours after plating once the cells settled out of the media and adhered to the bottom of the culture dish. […]
Cells were transferred to the recording chamber and superfused with vehicle control solution. […] Onset and steady state inhibition of hKv1.7 current due to the test article was measured using a pulse pattern with fixed amplitudes (depolarization: +10 mV amplitude, 300 ms duration) repeated at 10-second intervals from a holding potential of −80 mV. Current amplitude was measured at the end of the step to +10 mV. Current was monitored until a new steady state was achieved. […] The IC50 for sustained current was calculated for 3,4-DAP phosphate salt.
For 3,4-DAP phosphate salt, the concentration-response relationship was evaluated at seven concentrations (1, 10, 30, 100, 300, 1000 and 3000 μM) and for N-(4-aminopyridin-3-yl) acetamide HCl salt, the concentration-response relationship was evaluated at three concentrations (100, 1000 and 3000 μM).

Row | activity on K+ channel (hKv1.7) | activity on K+ channel (hKv1.7; listed as N-acetyl metabolite) | Structure (SMILES) | formation of single major acetylated amifampridine metabolite (rat hepatocytes)
1 |  |  | Nc1ccncc1N [3,4-DAP, 3,4-diaminopyridine] | extensive
2 | inactive | not active | CC(=O)Nc1cnccc1N [3-N-acetyl amifampridine, N-(4-aminopyridin-3-yl)acetamide] | 

— patent US11274332B2, “Methods of administering 3,4-diaminopyridine” (SERB SA, priority 2011, dated 2022)
